Source: patent US20050222173A1, “Triazolopyrimidines” (priority 2002, published 2005)

assay: logP determination by HPLC (EEC Directive 79/831 Annex V. A8); settings: HPLC, gradient method, acetonitrile/0.1% aqueous phosphoric acid

Row | SMILES | log.P
1 | CC(Nc1c(-c2c(F)cc(F)cc2F)c(Cl)nc2nc(N(C)C)nn12)C(F)(F)F (stereo not drawn) [Example 3] | 3.52
2 | CC(C)NNc1c(-c2c(F)cc(F)cc2F)c(Cl)nc2nc(N(C)C)nn12 [Example 4] | 3.33
3 | Fc1cc(F)c(-c2c(Cl)nc3nc(Cl)nn3c2N2CCOCC2)c(F)c1 [Example 5] | 2.99
4 | CC1CN(c2c(-c3c(F)cc(F)cc3F)c(Cl)nc3nc(Cl)nn23)CC(C)O1 (stereo not drawn) [Example 6] | 3.72
5 | CCNc1c(-c2c(F)cc(F)cc2F)c(Cl)nc2nc(Cl)nn12 [Example 7] | 3.07
6 | Fc1cc(F)c(-c2c(Cl)nc3nc(Cl)nn3c2N2CCCC2)c(F)c1 [Example 8] | 3.46
7 | CCN(CC)c1c(-c2c(F)cc(F)cc2F)c(Cl)nc2nc(Cl)nn12 [Example 9] | 3.85
8 | CCCNc1c(-c2c(F)cc(F)cc2F)c(Cl)nc2nc(Cl)nn12 [Example 10] | 3.37
9 | Fc1cc(F)c(-c2c(Cl)nc3nc(Cl)nn3c2NC2CCCC2)c(F)c1 [Example 11] | 3.9
10 | COCCNc1c(-c2c(F)cc(F)cc2F)c(Cl)nc2nc(Cl)nn12 [Example 12] | 2.91
11 | CNc1c(-c2c(F)cc(F)cc2F)c(Cl)nc2nc(Cl)nn12 [Example 13] | 2.67
12 | Fc1cc(F)c(-c2c(Cl)nc3nc(Cl)nn3c2NC2CC2)c(F)c1 [Example 14] | 3.1
13 | Fc1cc(F)c(-c2c(Cl)nc3nc(Cl)nn3c2N2CCSCC2)c(F)c1 [Example 15] | 3.68
14 | Fc1cc(F)c(-c2c(Cl)nc3nc(Cl)nn3c2NN2CCOCC2)c(F)c1 [Example 16] | 2.74
15 | CC(NNc1c(-c2ccccc2Cl)c(Cl)nc2nc(Cl)nn12)C1CC1 (stereo not drawn) [Example 17] | 3.55
16 | FC(F)C(F)(F)CNNc1c(-c2ccccc2Cl)c(Cl)nc2nc(Cl)nn12 [Example 18] | 3.59
17 | Clc1nc2nc(Cl)c(-c3ccccc3Cl)c(NCC3CC3)n2n1 [Example 19] | 3.55
18 | OCCNc1c(-c2ccccc2Cl)c(Cl)nc2nc(Cl)nn12 [Example 21] | 2.18
19 | CC(C)(C)Nc1c(-c2ccccc2Cl)c(Cl)nc2nc(Cl)nn12 [Example 22] | 3.99
20 | CC(Nc1c(-c2c(F)cc(F)cc2F)c(Cl)nc2nc(Cl)nn12)C1CCCCC1 (stereo not drawn) [Example 23] | 4.87
21 | OCCNc1c(-c2c(F)cc(F)cc2F)c(Cl)nc2nc(Cl)nn12 [Example 24] | 2.23
22 | CC(C)(C)Nc1c(-c2c(F)cc(F)cc2F)c(Cl)nc2nc(Cl)nn12 [Example 25] | 3.9

Row | SMILES | log.P
23 | CN(C)c1c(-c2ccccc2Cl)c(Cl)nc2nc(Cl)nn12 [Example 26] | 3.18
24 | Clc1nc2nc(Cl)c(-c3ccccc3Cl)c(N3CCOCC3)n2n1 [Example 27] | 3.03
25 | CC1CN(c2c(-c3ccccc3Cl)c(Cl)nc3nc(Cl)nn23)CC(C)O1 (stereo not drawn) [Example 28] | 3.81
26 | CCNc1c(-c2ccccc2Cl)c(Cl)nc2nc(Cl)nn12 [Example 29] | 3.07
27 | Clc1nc2nc(Cl)c(-c3ccccc3Cl)c(N3CCCC3)n2n1 [Example 30] | 3.59
28 | CCN(CC)c1c(-c2ccccc2Cl)c(Cl)nc2nc(Cl)nn12 [Example 31] | 3.99
29 | Clc1nc2nc(Cl)c(-c3ccccc3Cl)c(N3CCCCC3)n2n1 [Example 32] | 4.18
30 | CCCNc1c(-c2ccccc2Cl)c(Cl)nc2nc(Cl)nn12 [Example 33] | 3.46
31 | Clc1nc2nc(Cl)c(-c3ccccc3Cl)c(NC3CCCC3)n2n1 [Example 34] | 4.03
32 | COCCNc1c(-c2ccccc2Cl)c(Cl)nc2nc(Cl)nn12 [Example 35] | 2.91
33 | CNc1c(-c2ccccc2Cl)c(Cl)nc2nc(Cl)nn12 [Example 36] | 2.7
34 | Clc1nc2nc(Cl)c(-c3ccccc3Cl)c(NC3CC3)n2n1 [Example 37] | 3.18
35 | Clc1nc2nc(Cl)c(-c3ccccc3Cl)c(N3CCSCC3)n2n1 [Example 38] | 3.76
36 | CN(C)Nc1c(-c2ccccc2Cl)c(Cl)nc2nc(Cl)nn12 [Example 40] | 3.18
37 | COC(=O)N(C)Nc1c(-c2ccccc2Cl)c(Cl)nc2nc(Cl)nn12 [Example 41] | 2.55
38 | Clc1nc2nc(Cl)c(-c3ccccc3Cl)c(NC3CCCCC3)n2n1 [Example 42] | 4.32
39 | CC(C)Nc1c(-c2c(F)cc(F)cc2F)c(Cl)nc2nc(Br)nn12 [Example 43] | 3.4
40 | CC(C)Nc1c(-c2ccccc2Cl)c(Cl)nc2nc(Br)nn12 [Example 45] | 3.45
41 | Fc1cc(F)c(-c2c(Cl)nc3nc(Cl)nn3c2N2CCC(C(F)(F)F)CC2)c(F)c1 [Example 46] | 5
42 | CC(C)Nc1c(-c2c(F)cc(F)cc2F)c(Cl)nc2nc(Cl)nn12 [Example 47] | 3.36
43 | CC(C)CN(N)c1c(-c2c(F)cc(F)cc2F)c(Cl)nc2nc(Cl)nn12 [Example 48] | 3.67
44 | Fc1cc(F)c(-c2c(Cl)nc3nc(Br)nn3c2N2CCOCC2)c(F)c1 [Example 49] | 3.03

Row | SMILES | log.P
45 | CC1CN(c2c(-c3c(F)cc(F)cc3F)c(Cl)nc3nc(Br)nn23)CC(C)O1 (stereo not drawn) [Example 50] | 3.72
46 | CCNc1c(-c2c(F)cc(F)cc2F)c(Cl)nc2nc(Br)nn12 [Example 51] | 3.07
47 | Fc1cc(F)c(-c2c(Cl)nc3nc(Br)nn3c2N2CCCC2)c(F)c1 [Example 52] | 3.5
48 | CCN(CC)c1c(-c2c(F)cc(F)cc2F)c(Cl)nc2nc(Br)nn12 [Example 53] | 3.9
49 | CCCNc1c(-c2c(F)cc(F)cc2F)c(Cl)nc2nc(Br)nn12 [Example 54] | 3.41
50 | COCCNc1c(-c2c(F)cc(F)cc2F)c(Cl)nc2nc(Br)nn12 [Example 55] | 2.99
51 | Fc1cc(F)c(-c2c(Cl)nc3nc(Br)nn3c2NC2CC2)c(F)c1 [Example 56] | 3.14
52 | Fc1cc(F)c(-c2c(Cl)nc3nc(Br)nn3c2NN2CCOCC2)c(F)c1 [Example 57] | 2.77
53 | CC(C)(C)Nc1c(-c2c(F)cc(F)cc2F)c(Cl)nc2nc(Br)nn12 [Example 58] | 3.9
54 | CN(C)c1c(-c2c(F)cc(F)cc2F)c(Cl)nc2nc(Br)nn12 [Example 59] | 3.14
55 | Fc1cc(F)c(-c2c(Cl)nc3nc(Br)nn3c2NC2CCCC2)c(F)c1 [Example 60] | 3.94
56 | Fc1cc(F)c(-c2c(Cl)nc3nc(Br)nn3c2N2CCSCC2)c(F)c1 [Example 61] | 3.72
57 | Fc1cc(F)c(-c2c(Cl)nc3nc(Br)nn3c2NCC2CC2)c(F)c1 [Example 62] | 3.5
58 | CCC(C)Nc1c(-c2c(F)cc(F)cc2F)c(Cl)nc2nc(Br)nn12 (stereo not drawn) [Example 64] | 3.76
59 | CC(C)CN(N)c1c(-c2c(F)cc(F)cc2F)c(Cl)nc2nc(Br)nn12 [Example 65] | 3.67
60 | CC(C)(Nc1c(-c2c(F)cc(F)cc2F)c(Cl)nc2nc(Cl)nn12)C(F)(F)F [Example 66] | 3.28
61 | Fc1cc(F)c(-c2c(Cl)nc3nc(Cl)nn3c2N2CCCCC2C(F)(F)F)c(F)c1 (stereo not drawn) [Example 67] | 3.28
62 | CON(C)c1c(-c2c(F)cc(F)cc2F)c(Cl)nc2nc(Br)nn12 [Example 68] | 3.39
63 | CCC(C)CNc1c(-c2c(F)cc(F)cc2F)c(Cl)nc2nc(Cl)nn12 (stereo not drawn) [Example 69] | 4.04
64 | CCC(C)Nc1c(-c2ccccc2Cl)c(Cl)nc2nc(Cl)nn12 (stereo not drawn) [Example 70] | 3.79
65 | CON(C)c1c(-c2c(F)cc(F)cc2F)c(Cl)nc2nc(Cl)nn12 [Example 71] | 3.36
66 | CC1=CCCN(c2c(-c3c(F)cc(F)cc3F)c(Cl)nc3nc(Br)nn23)C1 [Example 72] | 4.19

Row | SMILES | log.P
67 | CCC(C)CNc1c(-c2c(F)cc(F)cc2F)c(Cl)nc2nc(Br)nn12 (stereo not drawn) [Example 73] | 4.05
68 | CCC(C)Nc1c(-c2c(F)cc(F)cc2F)c(Cl)nc2nc(Cl)nn12 (stereo not drawn) [Example 74] | 3.7
69 | CCN(CCOC)c1c(-c2c(F)cc(F)cc2F)c(Cl)nc2nc(Br)nn12 [Example 75] | 3.62
70 | C=C(C)CN(CC)c1c(-c2c(F)cc(F)cc2F)c(Cl)nc2nc(Br)nn12 [Example 76] | 4.4
71 | CCN(CCOC)c1c(-c2c(F)cc(F)cc2F)c(Cl)nc2nc(Cl)nn12 [Example 77] | 3.61
72 | C=C(C)CN(CC)c1c(-c2c(F)cc(F)cc2F)c(Cl)nc2nc(Cl)nn12 [Example 78] | 4.4
73 | COc1nc2nc(Cl)c(-c3c(F)cc(F)cc3OC)c(NC(C)C(F)(F)F)n2n1 (stereo not drawn) [Example 80] | 3.18
74 | FC(F)(F)C1CCN(c2c(-c3ccccc3Cl)c(Cl)nc3nc(Cl)nn23)CC1 [Example 81] | 4.22
75 | CC1CCN(c2c(-c3ccccc3Cl)c(Cl)nc3nc(Cl)nn23)CC1 [Example 82] | 4.62
76 | Fc1cc(F)c(-c2c(Cl)nc3nc(Cl)nn3c2N2CCC(F)CC2)c(F)c1 [Example 83] | 3.55
77 | CN1CCN(c2c(-c3c(F)cc(F)cc3F)c(Cl)nc3nc(Cl)nn23)CC1 [Example 84] | 2.71
78 | CC1CCCCN1c1c(-c2c(F)cc(F)cc2F)c(Cl)nc2nc(Cl)nn12 (stereo not drawn) [Example 85] | 4.33
79 | C=C(C)CNc1c(-c2c(F)cc(F)cc2F)c(Cl)nc2nc(Cl)nn12 [Example 86] | 3.37
80 | CC1=CCCN(c2c(-c3c(F)cc(F)cc3F)c(Cl)nc3nc(Cl)nn23)C1 [Example 87] | 4.21
81 | CC1CCCN(c2c(-c3c(F)cc(F)cc3F)c(Cl)nc3nc(Cl)nn23)C1 (stereo not drawn) [Example 88] | 4.45
82 | Fc1cc(F)c(-c2c(Cl)nc3nc(Cl)nn3c2N2CCCCC2)c(F)c1 [Example 89] | 4.06
83 | CC1CCN(c2c(-c3c(F)cc(F)cc3F)c(Cl)nc3nc(Cl)nn23)CC1 [Example 90] | 4.45
84 | CCC1=CCN(c2c(-c3c(F)cc(F)cc3F)c(Cl)nc3nc(Cl)nn23)CC1 [Example 91] | 4.63
85 | CC1CCCN(c2c(-c3ccccc3Cl)c(Cl)nc3nc(Cl)nn23)C1 (stereo not drawn) [Example 92] | 4.64
86 | CCC1=CCN(c2c(-c3ccccc3Cl)c(Cl)nc3nc(Cl)nn23)CC1 [Example 93] | 4.87
87 | CC(C)Nc1c(-c2c(F)cccc2Cl)c(Cl)nc2nc(Cl)nn12 [Example 94] | 3.42
